Experimental data from ChEMBL document CHEMBL5291721, “A preclinical secondary pharmacology resource illuminates target-adverse drug reaction associations of marketed drugs” (Nat Commun, 2023).
Values joined by “and” are separate entries in the source; they are usually repeats but may differ in a detail not shown here. Equal entries are not always repeated.

How the values were obtained:
[1] = molecular target: T1, Amine oxidase [flavin-containing] A (Homo sapiens, UniProt P21397); type: functional
T1 sequence (P21397 whole entry): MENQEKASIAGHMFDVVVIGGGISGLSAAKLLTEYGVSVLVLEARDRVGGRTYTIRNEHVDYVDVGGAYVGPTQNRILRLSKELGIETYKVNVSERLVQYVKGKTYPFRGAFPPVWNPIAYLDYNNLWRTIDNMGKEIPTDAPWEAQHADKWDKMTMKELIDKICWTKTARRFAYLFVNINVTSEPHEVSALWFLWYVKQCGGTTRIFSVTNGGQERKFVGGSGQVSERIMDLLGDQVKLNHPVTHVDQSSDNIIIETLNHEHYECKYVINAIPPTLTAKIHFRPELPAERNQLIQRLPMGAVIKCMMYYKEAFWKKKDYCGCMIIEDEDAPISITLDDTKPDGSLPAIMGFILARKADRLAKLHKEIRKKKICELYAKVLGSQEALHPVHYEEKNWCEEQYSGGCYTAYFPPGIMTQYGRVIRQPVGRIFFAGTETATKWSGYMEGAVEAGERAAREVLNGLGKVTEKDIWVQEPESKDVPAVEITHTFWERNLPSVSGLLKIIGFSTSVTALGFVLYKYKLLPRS

Adenosine receptor A1 = molecular target: T2, Adenosine receptor A1 (Homo sapiens, UniProt P30542)
T2 sequence (P30542 whole entry): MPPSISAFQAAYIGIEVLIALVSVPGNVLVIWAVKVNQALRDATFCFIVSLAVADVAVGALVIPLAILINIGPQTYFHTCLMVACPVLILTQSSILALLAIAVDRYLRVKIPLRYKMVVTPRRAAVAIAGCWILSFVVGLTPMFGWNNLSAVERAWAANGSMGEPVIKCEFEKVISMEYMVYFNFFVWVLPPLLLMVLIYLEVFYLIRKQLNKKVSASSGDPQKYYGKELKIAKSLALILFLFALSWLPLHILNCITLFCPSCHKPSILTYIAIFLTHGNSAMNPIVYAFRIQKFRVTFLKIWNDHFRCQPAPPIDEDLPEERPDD

B2 bradykinin receptor = molecular target: T3, B2 bradykinin receptor (Homo sapiens, UniProt P30411)
T3 sequence (P30411 whole entry): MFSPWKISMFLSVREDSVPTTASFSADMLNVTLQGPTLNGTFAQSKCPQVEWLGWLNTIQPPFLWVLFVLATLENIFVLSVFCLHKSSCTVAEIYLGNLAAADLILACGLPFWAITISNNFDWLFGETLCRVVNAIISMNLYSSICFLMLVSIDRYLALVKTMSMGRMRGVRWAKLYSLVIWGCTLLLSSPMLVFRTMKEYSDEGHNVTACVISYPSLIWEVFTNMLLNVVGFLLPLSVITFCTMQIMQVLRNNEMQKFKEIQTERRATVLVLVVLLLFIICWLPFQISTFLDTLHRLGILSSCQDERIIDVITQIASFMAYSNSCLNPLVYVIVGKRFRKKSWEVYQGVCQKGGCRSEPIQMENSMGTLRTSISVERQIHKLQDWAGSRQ

[2] = molecular target: 3',5'-cyclic-AMP phosphodiesterase 4D (Homo sapiens, UniProt Q08499); type: functional
[3] = molecular target: T4, Alpha-2C adrenergic receptor (Homo sapiens, UniProt P18825); type: functional
T4 sequence (P18825 whole entry): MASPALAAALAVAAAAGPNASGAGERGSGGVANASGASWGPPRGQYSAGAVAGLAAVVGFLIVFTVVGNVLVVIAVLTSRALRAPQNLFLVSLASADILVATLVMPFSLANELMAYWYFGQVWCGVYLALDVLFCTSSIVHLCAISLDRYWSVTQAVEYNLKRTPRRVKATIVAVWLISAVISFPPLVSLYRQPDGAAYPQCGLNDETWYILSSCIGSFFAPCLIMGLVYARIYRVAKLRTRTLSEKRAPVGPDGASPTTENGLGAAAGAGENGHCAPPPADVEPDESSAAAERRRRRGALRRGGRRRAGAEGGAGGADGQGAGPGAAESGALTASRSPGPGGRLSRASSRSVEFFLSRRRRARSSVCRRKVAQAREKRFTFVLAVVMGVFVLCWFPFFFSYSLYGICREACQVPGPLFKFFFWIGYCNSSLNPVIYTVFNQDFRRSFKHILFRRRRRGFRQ

D(3) dopamine receptor = D(3) dopamine receptor (Homo sapiens, UniProt P35462)
[4] = molecular target: Sodium-dependent noradrenaline transporter (Homo sapiens, UniProt P23975)
Motilin receptor = Motilin receptor (Homo sapiens, UniProt O43193)
[5] = molecular target: T5, Cholecystokinin receptor type A (Homo sapiens, UniProt P32238)
T5 sequence (P32238 whole entry): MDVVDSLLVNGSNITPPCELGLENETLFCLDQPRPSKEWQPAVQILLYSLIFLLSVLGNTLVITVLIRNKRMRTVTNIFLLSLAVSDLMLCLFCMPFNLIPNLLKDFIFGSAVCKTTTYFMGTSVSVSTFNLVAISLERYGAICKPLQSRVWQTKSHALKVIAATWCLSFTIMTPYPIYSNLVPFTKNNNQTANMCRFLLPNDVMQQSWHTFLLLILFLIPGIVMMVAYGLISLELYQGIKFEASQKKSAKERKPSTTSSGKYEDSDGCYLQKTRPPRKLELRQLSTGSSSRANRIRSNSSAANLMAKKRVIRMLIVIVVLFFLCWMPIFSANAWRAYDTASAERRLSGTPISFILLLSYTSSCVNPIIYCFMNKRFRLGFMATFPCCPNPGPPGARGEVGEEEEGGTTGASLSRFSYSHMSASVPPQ

[6] = molecular target: cGMP-inhibited 3',5'-cyclic phosphodiesterase 3A (Homo sapiens, UniProt Q14432); type: functional
[7] = molecular target: T6, Equilibrative nucleoside transporter 1 (Homo sapiens, UniProt Q99808)
T6 sequence (Q99808 whole entry): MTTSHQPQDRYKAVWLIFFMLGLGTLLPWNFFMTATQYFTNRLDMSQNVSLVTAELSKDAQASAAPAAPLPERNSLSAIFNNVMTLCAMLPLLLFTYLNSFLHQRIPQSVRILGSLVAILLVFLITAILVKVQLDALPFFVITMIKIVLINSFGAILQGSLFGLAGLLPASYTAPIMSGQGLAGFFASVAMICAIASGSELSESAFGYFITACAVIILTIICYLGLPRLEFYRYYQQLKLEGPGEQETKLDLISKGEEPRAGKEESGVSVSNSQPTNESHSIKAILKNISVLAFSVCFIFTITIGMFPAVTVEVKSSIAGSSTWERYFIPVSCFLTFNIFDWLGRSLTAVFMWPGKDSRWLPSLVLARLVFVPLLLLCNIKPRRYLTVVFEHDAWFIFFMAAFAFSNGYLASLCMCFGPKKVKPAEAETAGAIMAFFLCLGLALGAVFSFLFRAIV
Further: assay procedure not described here.

Chain of D(3) dopamine receptor (P35462 whole entry): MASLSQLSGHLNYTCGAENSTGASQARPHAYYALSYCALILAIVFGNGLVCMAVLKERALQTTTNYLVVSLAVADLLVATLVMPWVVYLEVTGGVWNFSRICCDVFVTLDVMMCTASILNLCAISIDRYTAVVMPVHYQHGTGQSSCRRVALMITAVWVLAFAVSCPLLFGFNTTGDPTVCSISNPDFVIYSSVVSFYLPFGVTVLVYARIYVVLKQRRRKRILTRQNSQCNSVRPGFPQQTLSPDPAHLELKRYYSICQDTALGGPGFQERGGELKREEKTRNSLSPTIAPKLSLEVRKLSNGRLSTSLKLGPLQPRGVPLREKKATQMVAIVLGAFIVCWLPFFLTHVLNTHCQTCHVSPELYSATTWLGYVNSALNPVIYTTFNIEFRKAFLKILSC
Chain of 3',5'-cyclic-AMP phosphodiesterase 4D (Q08499 whole entry): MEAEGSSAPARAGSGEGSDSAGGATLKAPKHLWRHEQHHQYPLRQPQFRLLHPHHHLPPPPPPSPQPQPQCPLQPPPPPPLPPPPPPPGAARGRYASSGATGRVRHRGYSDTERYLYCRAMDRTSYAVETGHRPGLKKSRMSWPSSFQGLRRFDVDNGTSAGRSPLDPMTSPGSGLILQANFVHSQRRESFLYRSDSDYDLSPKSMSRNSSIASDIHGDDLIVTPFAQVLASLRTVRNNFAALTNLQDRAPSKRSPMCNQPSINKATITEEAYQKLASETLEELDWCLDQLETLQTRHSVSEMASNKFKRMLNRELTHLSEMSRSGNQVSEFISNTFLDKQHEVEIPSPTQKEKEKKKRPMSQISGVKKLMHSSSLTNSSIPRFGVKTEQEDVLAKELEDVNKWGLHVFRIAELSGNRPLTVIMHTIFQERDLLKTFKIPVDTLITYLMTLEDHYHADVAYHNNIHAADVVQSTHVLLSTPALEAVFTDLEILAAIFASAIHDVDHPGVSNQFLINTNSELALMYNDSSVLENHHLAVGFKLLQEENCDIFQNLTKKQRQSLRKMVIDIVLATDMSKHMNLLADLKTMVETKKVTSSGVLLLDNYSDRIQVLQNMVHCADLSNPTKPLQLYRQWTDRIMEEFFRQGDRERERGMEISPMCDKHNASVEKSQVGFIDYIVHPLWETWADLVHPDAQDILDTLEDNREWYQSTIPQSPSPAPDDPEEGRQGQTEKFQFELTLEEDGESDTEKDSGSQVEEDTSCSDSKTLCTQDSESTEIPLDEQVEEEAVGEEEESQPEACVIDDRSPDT
Chain of Sodium-dependent noradrenaline transporter (P23975 whole entry): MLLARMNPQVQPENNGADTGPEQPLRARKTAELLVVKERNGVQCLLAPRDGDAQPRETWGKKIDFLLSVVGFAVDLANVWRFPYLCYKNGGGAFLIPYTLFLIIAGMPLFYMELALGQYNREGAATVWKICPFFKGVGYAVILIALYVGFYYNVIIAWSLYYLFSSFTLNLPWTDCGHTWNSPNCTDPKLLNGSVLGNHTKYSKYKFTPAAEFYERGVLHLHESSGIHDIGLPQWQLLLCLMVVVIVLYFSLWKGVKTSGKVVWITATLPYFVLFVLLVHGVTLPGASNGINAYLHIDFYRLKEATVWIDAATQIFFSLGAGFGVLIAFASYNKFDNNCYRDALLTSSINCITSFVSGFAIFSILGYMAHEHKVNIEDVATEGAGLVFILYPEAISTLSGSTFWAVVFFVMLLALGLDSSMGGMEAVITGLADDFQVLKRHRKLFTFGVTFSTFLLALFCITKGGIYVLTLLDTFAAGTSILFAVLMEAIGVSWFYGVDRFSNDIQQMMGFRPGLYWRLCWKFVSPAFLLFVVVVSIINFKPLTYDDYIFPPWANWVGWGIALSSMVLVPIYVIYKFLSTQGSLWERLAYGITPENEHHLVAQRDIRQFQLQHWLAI
Chain of Motilin receptor (O43193 whole entry): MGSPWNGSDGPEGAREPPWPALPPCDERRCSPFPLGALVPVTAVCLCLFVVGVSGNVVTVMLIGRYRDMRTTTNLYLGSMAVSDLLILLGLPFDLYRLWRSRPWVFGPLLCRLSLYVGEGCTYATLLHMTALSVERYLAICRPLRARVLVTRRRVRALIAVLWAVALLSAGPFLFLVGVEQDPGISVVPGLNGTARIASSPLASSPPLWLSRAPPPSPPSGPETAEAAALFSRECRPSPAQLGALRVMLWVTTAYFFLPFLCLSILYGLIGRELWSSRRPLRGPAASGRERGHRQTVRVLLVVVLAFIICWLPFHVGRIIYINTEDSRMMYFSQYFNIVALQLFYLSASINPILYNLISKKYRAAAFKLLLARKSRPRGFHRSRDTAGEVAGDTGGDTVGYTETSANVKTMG
Chain of cGMP-inhibited 3',5'-cyclic phosphodiesterase 3A (Q14432 whole entry): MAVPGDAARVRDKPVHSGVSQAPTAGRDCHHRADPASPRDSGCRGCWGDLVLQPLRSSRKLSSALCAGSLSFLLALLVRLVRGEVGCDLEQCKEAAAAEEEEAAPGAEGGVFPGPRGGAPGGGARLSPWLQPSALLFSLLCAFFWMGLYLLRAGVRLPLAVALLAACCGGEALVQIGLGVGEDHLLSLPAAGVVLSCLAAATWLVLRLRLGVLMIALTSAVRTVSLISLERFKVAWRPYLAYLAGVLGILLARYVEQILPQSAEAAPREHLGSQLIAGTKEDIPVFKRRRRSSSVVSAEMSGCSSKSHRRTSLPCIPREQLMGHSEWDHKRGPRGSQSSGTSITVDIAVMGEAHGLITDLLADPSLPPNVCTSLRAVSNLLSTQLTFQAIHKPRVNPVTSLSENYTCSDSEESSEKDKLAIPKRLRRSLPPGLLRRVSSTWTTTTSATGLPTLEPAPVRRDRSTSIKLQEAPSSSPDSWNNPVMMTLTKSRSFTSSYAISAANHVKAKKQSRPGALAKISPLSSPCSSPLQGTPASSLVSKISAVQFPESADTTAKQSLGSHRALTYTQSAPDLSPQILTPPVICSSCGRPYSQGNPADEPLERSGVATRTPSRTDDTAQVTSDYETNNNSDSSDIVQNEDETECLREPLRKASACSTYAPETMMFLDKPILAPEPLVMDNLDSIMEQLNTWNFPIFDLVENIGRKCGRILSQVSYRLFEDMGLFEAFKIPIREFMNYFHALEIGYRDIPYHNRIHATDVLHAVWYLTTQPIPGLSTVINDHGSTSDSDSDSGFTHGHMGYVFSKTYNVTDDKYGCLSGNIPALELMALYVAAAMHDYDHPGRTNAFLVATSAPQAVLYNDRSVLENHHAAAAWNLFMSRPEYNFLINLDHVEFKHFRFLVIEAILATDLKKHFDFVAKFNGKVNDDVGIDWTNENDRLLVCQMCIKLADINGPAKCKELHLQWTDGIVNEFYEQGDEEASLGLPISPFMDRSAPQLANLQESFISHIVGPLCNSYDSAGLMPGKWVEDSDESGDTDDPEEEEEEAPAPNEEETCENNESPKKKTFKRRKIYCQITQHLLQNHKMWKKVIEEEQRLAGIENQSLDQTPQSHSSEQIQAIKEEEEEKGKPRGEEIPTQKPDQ

SMILES | AC50 [1] [µM] | AC50 (Adenosine receptor A1) [µM] | AC50 (B2 bradykinin receptor) [µM] | AC50 [2] | AC50 [3] [µM] | AC50 (D(3) dopamine receptor) [µM] | AC50 [4] | AC50 (Motilin receptor) [µM] | AC50 [5] [µM] | AC50 [6] | AC50 [7] [µM]
CCC[C@H](NC(=O)[C@@H]1[C@H]2CCC[C@H]2CN1C(=O)[C@@H](NC(=O)[C@@H](NC(=O)c1cnccn1)C1CCCCC1)C(C)(C)C)C(=O)C(=O)NC1CC1 | > 10 | > 30 | > 30 | > 30 µM | > 10 | > 30 | > 10 µM | > 10 | > 30 | > 30 µM | > 30
CCCCC1C(=O)N(c2ccccc2)N(c2ccccc2)C1=O [PHENYLBUTAZONE] | > 10 | > 30 | > 30 | > 30 µM | > 10 | > 30 | > 30 µM | > 30 | > 30 | > 30 µM | > 30
CC(CCc1ccc(O)cc1)NCCc1ccc(O)c(O)c1 (stereo not given) [DOBUTAMINE] | > 30 | > 30 | > 30 | > 30 µM | 0.798 | 0.728 | 1.73 µM | > 30 | > 30 | > 30 µM | > 30
C[C@]12CC[C@@H]3c4ccc(O)cc4C[C@@H](CCCCCCCCC[S+]([O-])CCCC(F)(F)C(F)(F)F)[C@H]3[C@@H]1CC[C@@H]2O (stereo not given in full) [FULVESTRANT] | > 30 | > 30 | > 30 | > 30 µM | > 30 | > 30 | > 30 µM | > 30 | > 30 | > 30 µM | > 30
OC1(c2ccc(Cl)cc2)c2ccccc2C2=NCCN21 (stereo not given) [MAZINDOL] | > 30 | > 30 | > 30 | > 30 µM | > 30 | > 30 | 0.027 µM | > 30 | > 30 | > 30 µM | > 30
CC1OC2(CS1)CN1CCC2CC1 (stereo not given) [CEVIMELINE] | > 30 | > 10 | > 10 | > 30 µM | > 30 | > 30 | > 10 µM | > 10 | > 10 | > 30 µM | > 10
C[C@H](Cc1ccc(O)c(O)c1)[C@@H](C)Cc1ccc(O)c(O)c1 [MASOPROCOL] | > 30 | > 30 | > 10 | 4.2 µM and 2.8 µM and 3.1 µM | > 30 | 1.8 | 20.6 µM and 20 µM (2×) | > 10 | > 10 | 12 µM and 23 µM and 19 µM | > 30
CC(C)COCC(CN(Cc1ccccc1)c1ccccc1)N1CCCC1 (stereo not given) [BEPRIDIL] | > 30 | > 30 | > 30 | > 30 µM | 3.3 | 2.6 | 21 µM | 20.2 | 23.2 | > 30 µM | > 30
C[C@]12CCC(=O)C(O)=C1CC[C@@H]1[C@@H]2CC[C@]2(C)C(=O)CC[C@@H]12 [FORMESTANE] | > 30 | > 30 | > 30 | > 30 µM | > 30 | > 30 | > 30 µM | > 30 | > 30 | > 30 µM | > 30
CCC(=O)O[C@]1(C(=O)SCF)[C@H](C)C[C@H]2[C@@H]3C[C@H](F)C4=CC(=O)C=C[C@]4(C)[C@@]3(F)[C@@H](O)C[C@@]21C [FLUTICASONE PROPIONATE] | > 30 | > 30 | > 30 | > 30 µM | > 30 | > 30 | > 30 µM | > 30 | > 30 | > 30 µM | > 30
CC(C)(C)C(=O)OCC(=O)[C@H]1CC[C@H]2[C@@H]3CCC4=CC(=O)CC[C@]4(C)[C@H]3CC[C@]12C [DESOXYCORTICOSTERONE PIVALATE] | > 10 | > 10 | > 10 | > 30 µM | > 10 | > 30 | > 10 µM | > 10 | > 10 | > 30 µM | > 10
[H]/N=C(/N)N/C(=N/[H])NCCc1ccccc1 [PHENFORMIN] | > 30 | > 30 | > 30 | > 30 µM | > 30 | > 30 | 18.3 µM | > 10 | > 30 | 22 µM | > 30
Cc1noc(NS(=O)(=O)c2ccc(N)cc2)c1C [SULFISOXAZOLE] | > 10 | > 10 | > 10 | > 30 µM | > 10 | > 30 | > 10 µM | > 10 | > 10 | > 30 µM | > 10
C=CCNc1nc(NCC=C)nc(N2CCN(C(c3ccc(F)cc3)c3ccc(F)cc3)CC2)n1 [ALMITRINE] | > 30 | > 30 | > 30 | > 30 µM | > 30 | > 30 | > 30 µM | > 30 | > 30 | > 30 µM | > 30
C/N=C(\NC)NCc1ccccc1 [BETHANIDINE] | > 30 | > 30 | > 30 | > 30 µM | > 30 | > 30 | > 30 µM | > 30 | > 30 | > 30 µM | > 30
